Experimental data: EP0291164A2, “Growth-suppressing infusion medium, growth-suppressing cell culture medium and processes for the suppression of transformed cell growth” (SPECTRAL BIOANALYSIS LTD., priority 1987, dated 1988)

How the values were obtained:
[1] = system: HTB-30; assay: Cell growth by Lowry protein determination after 80 hours in zinc-supplemented culture medium; type: cell-based, human; conditions: HTB-30, about 1.6 mg/l to about 4.0 mg/l of Zn⁺⁺
Source text: (§1) In the example, malignant transformed human cell lines obtained from the American Type Culture Collection, i.e., a human epithelial cervix carcinoma cell line, HeLa (ATCC No. CCL-2), a human adenocarcinoma carcinoma cell line of the colon, HT-29 (ATCC No. HTB-38) and a human adenocarcinoma carcinoma cell line of the breast, SK-BR-3 (ATCC No. HTB-30) were used. Non-transformed dipolid human fibroblast cells (MRC-5, ATCC No. CCL-171) were employed as a control. The cell lines were obtained from the American Type Culture Collection in a frozen condition. In order to reactivate the cells, the cells were subcultured in McCoy 5A (mod.) medium (Serva Company) containing 15% (v/v) fetal calf serum.
(§2) The reactivated cells were allowed to reach the logarithmic growth phase and then detrypsinized and harvested. The harvested cells were washed twice with McCoy 5A (mod.) medium containing 15% (v/v) fetal calf serum and then resuspended in the same medium at a concentration of 10⁶ cells per ml. The correct cell concentration was determined using a Neubeuer-Turk count chamber in which the viability of the cells was also determined by means of Trypan blue coloring (see: Freshney, I.R., Culture of Animal Cells, Alan Riss Publ. Co., New York, N.Y. (1983)).
(§3) To tubes containing 200,000 HTB-30 cells or 200,000 HTB-38 cells or 200,000 CCL-2 cells was added Cell Culture Medium Nos. 1, 2, 3, 4, 5, 6, 7, 8 or 9 described below and the cells were incubated for 80 hours. In addition, to tubes containing 200,000 human fibroblast cells (MRC-5) were added Cell Culture Medium Nos. 1, 2, 3, 4, 5, 6, 7, 8 or 9 described below and the cells were incubated for 80 hours. All of the cells were incubated at 36.5°C (± 0.5°C), 5% CO₂ and 95% air. Five duplicate tubes were employed for each cell culture medium for each cell.
(§4) After the end of the incubation time, the culture medium was removed and the cells were washed three times with Dulbecco buffer solution (see: Dulbecco, R.U., Vogt, M., J. Exp. Med. 98:167-182 (1954)). Next, the cells were dried and octyl phenol polyethylene glycol ether was added at a concentration of 0.2% (v/v) to each tube to which 20 µl of 1.0 N NaOH had been additionally added per ml.
(§5) After thorough mixing and allowing the samples to stand for 30 minutes at 20-25°C, 200 µl each of the resulting cell extracts were used for protein determinations according to the Lowry method (see: Lowry, O.H. et al., J. Biol. Chem. 193:265 (1951)).
(§6) The Control in the Table below refers to Cell Culture Medium No. 1 at 4°C to which no cells had been added. […] All growth values are mean values from the five duplicate tubes ± the standard deviation.
(§7) The growth value as a percent of the Control was determined according to the following formula: [formula]
(§8) In addition, in the Table, the mean adsorption values are determinative of the concentration of protein in the cells and were evaluated at 660 nm.

[2] = system: CCL-2; assay: as above; type: cell-based, human; conditions: CCL-2, about 1.6 mg/l to about 4.0 mg/l of Zn⁺⁺
Source text: as §1, §2, §3, §4, §5, §6, §7, §8

[3] = system: HTB-38; assay: as above; type: cell-based, human; conditions: for decrease in protein yield: compared to Cell Culture Medium No. 1, 4800 min
Source text: as §1, §2, §3, §4, §5, §6, §7, §8

[4] = system: Human Fibroblasts; assay: Cell growth by Lowry protein determination after 80 hours in zinc-supplemented culture medium (non-transformed control cells); type: cell-based; conditions: about 1.6 mg/l to about 4.0 mg/l of Zn⁺⁺
Source text: as §1
The reactivated cells were allowed to reach the logarithmic growth phase and then detrypsinized and harvested. […] The correct cell concentration was determined using a Neubeuer-Turk count chamber in which the viability of the cells was also determined by means of Trypan blue coloring (see: Freshney, I.R., Culture of Animal Cells, Alan Riss Publ. Co., New York, N.Y. (1983)). […]
as §7, §8

Structure (SMILES): [Cl-].[Cl-].[Zn+2] [bivalent zinc, ZnCl₂]
- growth rate, expressed as protein concentration [1]: inhibited
- growth rate, expressed as protein concentration [2]: inhibited
- decrease in protein yield ([3]; HTB-38, 3.5 mg/l of Zn⁺⁺ (maximum growth suppression)): 41.8%
- growth rate, expressed as protein concentration ([3]; HTB-38, about 1.6 mg/l to about 4.0 mg/l of Zn⁺⁺): inhibited
- decrease in protein yield ([3]; HTB-38, about 2.1 mg/l of Zn⁺⁺): 24.8%
- growth rate, expressed as protein concentration [4]: not inhibited
